{"source": "patent US12534444B2", "about": "“Treatment of cancer/inhibition of metastasis” (Celex Oncology Innovations Limited, priority 2010, dated 2026)", "system": "MDA-MB-231 cells", "test": "Single-cell adhesion assay (SCAMA, detachment negative pressure)", "type": "cell-based, human", "conditions": "24 hours", "protocol": "FIG. 4 is a schematic illustration of the single-cell adhesion measurement apparatus (SCAMA) first described in the paper by Palmer et al. (2008). Human breast cancer cells from the MDA-MB-231 cell line were plated at a density of 2.5×10^4 cells/ml and left to settle in a cell culture dish 401 for 48 hours prior to measurements. Medium was removed and 2 ml of the drug under study was applied for 10 minutes. Adhesion was measured using a glass micropipette 402 connected to a vacuum pump 403 via plastic tubing 404. The tip of the micropipette was drawn to about 20 μm (range, 17-24 μm) tip diameter. The vacuum pump was used to create negative pressure inside a reservoir 405 so that the negative pressure could be applied to the tip of the micropipette by pressing the thumb to the open end of a sealable T-piece 406. […] The pressure was measured using a digital manometer 409 connected to a computer 410 via a RS232 cable 411. Using a micromanipulator 412, the micropipette 402 was positioned on the periphery of a single cell. […] The negative pressure required to detach the cell was recorded on the computer as a pressure spike. The peak of the spike (“detachment negative pressure” (DNP)) was used as a measure of the cell's adhesiveness. Using this technique, several recordings could be made from a single dish within minutes. […] In order to test for the reversibility of a given effect, the pharmacological agent was washed off, fresh medium was added and the plate was incubated for a further 10 minutes prior to re-measurement. Each treatment was carried out on at least two dishes of cells, at least 100 cells per dish were measured, and the experiment was repeated three times (with corresponding controls). In the single cell adhesion experiments, hypoxia was induced chemically by application of hydrogen peroxide (1-500 μM) for 24 hours.", "data": [{"molecule": "OO", "note": "[hydrogen peroxide]", "values": [{"measurement": "mean detachment negative pressure (ΔDNP versus untreated control)", "setting": "hydrogen peroxide 1 μM", "value": "approximately −9%"}, {"measurement": "mean detachment negative pressure (ΔDNP versus untreated control)", "setting": "hydrogen peroxide 10 μM", "value": "approximately −14%"}, {"measurement": "mean detachment negative pressure (ΔDNP versus untreated control)", "setting": "hydrogen peroxide 100 μM", "value": "approximately −20%"}]}]}
